Laboratory results reported in patent US20140323443A1, “TIGECYCLINE FORMULATIONS” (Fresenius Kabi USA, LLC, priority 2013, published 2014).

Tests used:
[1] = pH of a saturated solution of tigecycline in water; assay type: physicochemical
Experimental: A solid composition that includes tigecycline and arginine may further include an acid and/or a base. The pH of a saturated solution of tigecycline in water is about 8. The amount of the acid and/or base may be an amount sufficient to provide a pH in the range of from 4 to 6 when a composition containing 53 mg tigecycline is reconstituted in 5.3 mL of an aqueous carrier liquid, such as 0.9% sodium chloride injection. Preferably the amount of the acid and/or base may be an amount sufficient to provide a pH in the range of from 4.25 to 5.75, from 4.5 to 5.75, from 4.5 to 5.5, or from 4.75 to 5.25 when a composition containing 53 mg tigecycline is reconstituted in 5.3 mL of an aqueous carrier liquid. In some embodiments, hydrochloric acid and/or sodium hydroxide is used to adjust pH.

[2] = cited from earlier work
[3] = aqueous liquid at 2-8° C., water sparged and tigecycline blanketed with inert gas, for 24 hours; cited from earlier work

CN(C)c1cc(NC(=O)CNC(C)(C)C)c(O)c2c1C[C@H]1C[C@H]3[C@H](N(C)C)C(O)=C(C(N)=O)C(=O)[C@@]3(O)C(O)=C1C2=O [tigecycline, (4S,4aS,5aR,12aS)-9-[2-(tert-butylamino)acetamido]-4,7-bis(dimethyl-amino)-1,4,4a,5,5a,6,11,12a-octahydro-3,10,12,12a-tetrahydroxy-1,11-dioxo-2-naphthacenecarboxamide]
pH of a saturated solution in water [1]: about 8 | oral bioavailability [2]: poor | amount of tigecycline converted into degradants prior to lyophilization [3]: below 1%
